From US10059973B2, “Carbohydrate esters as inducers for gene expression” (priority 2012, dated 2018)

Key:
[1] = tested on: T. reesei Rut-C30; experiment: Protein (cellulase) induction in T. reesei Rut-C30 shake-flask culture, CMC endo-glucanase activity assay; assay type: cell-based, Trichoderma reesei; conditions: for Cellulase activity at day 3 / Cellulase activity at day 3 (specific induction power, U/mg inducer): 2% glucose as carbon source
Excerpt: To prepare for protein induction studies using Trichoderma, a citrate minimal media was first prepared. The media composition, as modified from England et al. (U.S. Pat. […] The final pH was adjusted to 5.50 using NaOH. […] It was obtained from ATCC (56765) and developed as a catabolic de-repressed strain from classic mutagenesis of parent strain NG14 and the wild type […] al., BMC Genomics, 9:327, (2008)). To propagate Trichoderma, the freeze-dried stock from ATCC was first dissolved in sterile deionized water and then transferred onto a PDA (potato dextrose agar) plate (Teknova […]) using a sterile loop. The PDA plate was maintained at room temperature under white fluorescent light and after approximately 7 days, green Trichoderma spores could be seen. In addition, 60% (w/v) glucose stock was prepared and used both as control and as the carbon source for Trichoderma growth. […] Bacteriol., 73:269-278, (1957)).

[2] = tested on: cellulase gene promoter in Trichoderma reesei; conditions: cited from earlier work
[3] = tested on: Penicillium purpurogenum; conditions: cited from earlier work
[4] = tested on: Pullularia pullulans; conditions: cited from earlier work
[5] = tested on: Aspergillus niger (NRRL 330); experiment: Protein (amylase) induction in Aspergillus niger culture, amylase activity assay; assay type: cell-based; conditions: inducer 0.05 g/L; 1% sorbitol as carbon source; 24 hours after inducer addition
Protocol: The procedure of preparing maltose acetate chemically and subsequent sample recovery follows the same procedure described in Example 4. […] Aspergillus niger (NRRL 330), obtained from ARS culture collection, was maintained on a PDA plate and allowed to sporulate for a week at room temperature. For inoculation, a 2 cm by 2 cm area agar plug was first removed and suspended in 5 mL sterile water. […] After additional 24 hours, the cultures were assayed for amylase activity following similar procedures to those detailed by Barton et al. (J.

Compound: OC[C@H]1O[C@@H](O[C@H]2[C@H](O)[C@@H](O)C(O)O[C@@H]2CO)[C@H](O)[C@@H](O)[C@H]1O (stereo partly drawn) [lactose, D-lactose, reference compound]
- Cellulase activity at day 3 ([1]; inducer 1.0 g/L): 0.64 U/mL
- Cellulase activity at day 3 (specific induction power, U/mg inducer) ([1]; inducer 1.0 g/L): 0.64 U/mg

Compound: 6″ acetylated lactose monoester [Purified lactose monoacetate]
- Cellulase activity at day 3 ([1]; inducer 0.09 g/L): 2.05 U/mL
- Cellulase activity at day 3 (specific induction power, U/mg inducer) ([1]; inducer 0.09 g/L): 22.0 U/mg
- specific induction activity relative to unmodified lactose ([1]; inducer 0.09 g/L, day 3): approximately 34 times
- Cellulase activity at day 3 ([1]; inducer 0.51 g/L): 10.1 U/mL
- Cellulase activity at day 3 (specific induction power, U/mg inducer) ([1]; inducer 0.51 g/L): 19.9 U/mg
- specific induction activity relative to unmodified lactose ([1]; inducer 0.51 g/L, day 3): ~31 times
- Cellulase activity at day 3 ([1]; inducer 1.05 g/L): 14.0 U/mL
- Cellulase activity at day 3 (specific induction power, U/mg inducer) ([1]; inducer 1.05 g/L): 13.3 U/mg
- specific induction activity relative to unmodified lactose ([1]; inducer 1.05 g/L, day 3): ~21 times

Compound: OC[C@H]1O[C@@H](O[C@H]2C(O)O[C@H](CO)[C@@H](O)[C@@H]2O)[C@H](O)[C@@H](O)[C@@H]1O (stereo partly shown) [sophorose, reference compound]
- activity as cellulase inducer relative to cellobiose [2]: 2500 times
- Cellulase activity at day 3 ([1]; inducer 0.13 g/L): 3.58 U/mL
- Cellulase activity at day 3 (specific induction power, U/mg inducer) ([1]; inducer 0.13 g/L): 26.9 U/mg
- Cellulase activity at day 3 ([1]; inducer 1.3 g/L): 15.0 U/mL
- Cellulase activity at day 3 (specific induction power, U/mg inducer) ([1]; inducer 1.3 g/L): 11.2 U/mg

Compound: O=C[C@H](O)[C@@H](O)[C@H](O[C@@H]1O[C@H](CO)[C@@H](O)[C@H](O)[C@H]1O)[C@H](O)CO [cellobiose, reference compound]
- Cellulase activity at day 3 ([1]; inducer 1.0 g/L): 0.34 U/mL
- Cellulase activity at day 3 (specific induction power, U/mg inducer) ([1]; inducer 1.0 g/L): 0.34 U/mg

Compound: mono-O-acetyl cellobiose
- effectiveness at inducing cellulase (in words) [3]: the most active inducer tested

Compound: Sucrose monopalmitate
- induced sucrase yield relative to sucrose [4]: 80 times

Compound: OC[C@H]1O[C@H](O[C@H]2[C@H](O)[C@@H](O)[C@H](O)O[C@@H]2CO)[C@H](O)[C@@H](O)[C@@H]1O [Maltose, maltose]
- Amylase activity at day 3 [5]: 2.11 U/mL
- Amylase activity at day 3 (specific induction power, U/mg inducer) [5]: 44.0 U/mg

Compound: CC(=O)OC[C@H]1O[C@@H](O[C@@H]2[C@@H](O)[C@H](O)[C@@H](COC(C)=O)O[C@@H]2O)[C@H](O)[C@@H](O)[C@@H]1O [Purified sophorose diacetate, 6′ and 6″ acetylated alpha-sophorose diester]
- Cellulase activity at day 3 ([1]; inducer 0.03 g/L): 6.33 U/mL
- Cellulase activity at day 3 (specific induction power, U/mg inducer) ([1]; inducer 0.03 g/L): 211.0 U/mg
- specific induction power relative to sophorose ([1]; inducer 0.03 g/L, day 3): ~8 times
- Cellulase activity at day 3 ([1]; inducer 0.12 g/L): 23.2 U/mL
- Cellulase activity at day 3 (specific induction power, U/mg inducer) ([1]; inducer 0.12 g/L): 193.3 U/mg
- specific induction power relative to unmodified sophorose ([1]; inducer 0.12 g/L, day 3): ~7 times
